{
  "source": "patent US20250346643A1",
  "about": "“TROPOMYOSIN KINASE RECEPTOR (TRK) LIGANDS AS THERAPEUTICS TO SUPPORT LIVER REGENERATION” (Vanderbilt University, priority 2024, published 2025)",
  "key": {"mTOR": {"system": "mTOR", "assay": "Immunoblotting of mpPHH for P-S6RP and P-P70S6K (mTOR activation)", "assay_type": "cell-based, human", "settings": "NTF3", "method": "Mouse passaged primary human hepatocytes. Mouse-passaged primary human hepatocytes (mpPHHs) were collected as previously described (Michailidis et al., Proc Natl Acad Sci USA. 2020; 117(3): 1678-1688) and cultured in hepatocyte culture media (CC-3198, Lonza, Basel, Switzerland) in collagen-coated chamber slides. Three days before treatment, mpPHH were incubated in William's E media (with L-glutamine). […] 5-15 images per treatment per experiment were randomly taken and EdU positive nuclei quantified.\n(§1) Immunoblotting. […] Protein concentration of supernatants was determined by Direct Detect Spectrophotometer (MilliporeSigma, Burlington, MA). […] The protein concentration of supernatants was determined by a Direct Detect® spectrophotometer (MilliporeSigma, Burlington, MA). For immunoblot analysis, 10 to 50 μg of protein diluted in […] sample buffer (Invitrogen, Waltham, MA) were analyzed per SDS-polyacrylamide gel electrophoresis (NuPAGE™, Invitrogen, Waltham, MA) using Mops buffer or MES buffer (Invitrogen, Waltham, MA). […] Semi-quantitative band densitometry was performed using ImageJ software (version 1.53)."}, "CCND1 and PCNA": {"system": "CCND1 and PCNA", "assay": "Immunoblotting of HDOs for CCND1 and PCNA", "assay_type": "cell-based, human", "settings": "NTF3", "method": "Human ductal organoids. The normal human liver tissue was obtained through the Cooperative Human Tissue Network (CHTN) at Vanderbilt University Medical Center. The liver was cut into very small pieces in liver digestion medium (Gibco, Waltham, MA; 17703-034). The cell suspension was filtered through a 100-μm cell strainer. The flow through was then centrifuged for 2 min at 100 g, 4° C., and the cell pellet resuspended in ice-cold DMEM (Gibco, Waltham, MA; 11885-084, supplemented by 5% FBS) and centrifuged for 2 min at 300 g. The cell pellet was gently resuspended in Matrigel® (Corning, Corning, NY; 356231) and a […] dome plated in a 24-well plate. The plate was incubated for 10-15 min at 37° C. […]\nas §1"}},
  "data": [
    {"substance": "NTF3: neurotrophin-3, recombinant protein; HSC-derived hepatocyte mitogen, ligand of TRKA, TRKB, TRKC", "values": [
      {"measurement": "levels of phosphorylated P-S6RP Ser240/244 and P-pS70SK Thr389", "setting": "mTOR", "result": "increased levels"},
      {"measurement": "CCND1 and PCNA (immunoblotting)", "setting": "CCND1 and PCNA", "result": "induced CCND1 and PCNA"}
    ]}
  ]
}
